# Results from publication PMC11876601 (Molecular Systems Biology, 2025).
# Several values for one entry are separate records, joined by “and”; a condition that tells them apart may be missing. Equal values may be shown once. Read-outs that look alike come from different tables or passages of the source.
# Experiments:
# PDO UME012 = test: PDO viability assay (CellTiter-Glo, 72 h); type: cell-based, human; design: Curve bottom: scale not given here;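 on Curve top: fraction of plate-wise median vehicle signal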
# Description: (§1) Primary patient-derived PDAC organoid (PDO) experiments were performed in the laboratories of Prof. Maximilian Reichert (University Hospital of the TU Munich, Germany, PDO set 1: B250, B535, B678) and Prof. Jens T. Siveke (University Hospital Essen, Germany; PDO set 2: UME008, UME012, UME051, UME053, UME060, UME061). PDOs were generated from surgical resection, EUS-guided fine needle biopsy (EUS-FNB), or ascites (Appendix Table S2). Surgical specimens were first minced with a sterile scalpel and subsequently washed with Anti-Anti solution and washing medium (PDO set 1), or vice versa (PDO set 2; Appendix Table S3). Biopsy samples were directly washed with an Anti-Anti solution and washing medium. Samples were digested using 1 ml of digestion medium at 37 °C while shaking, and the enzymatic reaction was stopped by adding 15 ml of washing medium (Appendix Table S3). If samples of PDO set 1 were blood-stained, tissue pellets were first incubated with ACK lysing buffer/red blood cells lysis buffer (Thermo Fisher Scientific) for 5 min and then digested using TrypLE (Thermo Fisher Scientific). The reversed procedure was applied for blood-stained samples of PDO set 2. For PDO generation from ascites, the material was first spun down at 500 × g for 5 min. Then, washing medium was added and the suspension was centrifuged at 300 × g for 5 min. If the pellet was blood-stained, ACK lysis buffer was added and incubated at room temperature.
# (§2) For viability assays in PDOs, confluent organoids were removed from medium, and Matrigel was dissolved by adding 200 μl (PDO set 1) or 2 ml (PDO set 2) of Cell Recovery Solution (Corning), and additionally 500 μl of DPBS (PDO set 1 only). Samples were transferred into a falcon and incubated on ice for 30 min, followed by centrifugation at 300 × g at 4 °C for 5 min (after adding 10 ml washing medium for PDO set 2). Subsequently, TrypLE Express Enzyme (Thermo Fisher) was added to cell pellets and incubated for 2 × 5 min at 37 °C. The enzymatic reaction was quenched by DPBS (PDO set 1) or washing medium (PDO set 2), and samples were washed by centrifugation at 300 × g at 4 °C for 5 min. Five hundred cells/well were seeded in 384-well plates (Corning) in 50 μl of PDO medium containing 10% Matrigel. To allow PDO generation, cells were incubated for 4 days at 37 °C and 5% CO2. […] Experiments were pipetted manually (PDO set 1) or automatically using a TECAN D300e Digital Dispenser (HP; PDO set 2). Treatments were performed in eight replicates, except for PDO PPES045 (quadruplicates). After 72 h, cell viability was measured using the CellTiter-Glo Luminescent Cell Viability Assay (Promega) diluted 1:5 in the final volume of the well. After 20 min of incubation at room temperature under gentle shaking, the acquisition was performed in the microplate reader VantaSTAR (BMG Labtech) using 3000 gain for the amplification measurement of a detected signal (PDO set 1) or the Spark Multimode microplate reader (TECAN) at 800 ms integration time (PDO set 2).
# PDO UME051 = test: PDO viability assay (CellTiter-Glo, 72 h); type: cell-based, human; design: Curve bottom: scale not given here;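 on Curve top: fraction of plate-wise median vehicle signal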
# Description: as §1, §2
# PDGFRB = test system: PDGFRB; design: method as in Klaeger et al. (2017); conditions: lysate 4 cell line mix (Colo205, K-562, MV-4-11, and SK-N-BE(2)), Kinobeads y, ref Klaeger et al. (2017); cited from earlier work
# CDK2 = test system: CDK2; design: method as in Klaeger et al. (2017); conditions: CDK2, 4 cell line mix lysate, Kinobeads y, ref Klaeger et al. (2017); cited from earlier work
# CAMK2B = target: CAMK2B; design: method as in Reinecke et al. (2023); conditions: 5 cell line mix lysate, Kinobeads ε, ref Reinecke et al. (2023), cited from earlier work
# PRKAG1 = test system: PRKAG1; design: method as in Reinecke et al. (2023); conditions: PRKAG1, 5 cell line mix lysate, Kinobeads ε, ref Reinecke et al. (2023), cited from earlier work
# CLK2 = test system: CLK2; design: method as in Reinecke et al. (2023); conditions: CLK2, 5 cell line mix lysate, Kinobeads ε, ref Reinecke et al. (2023), cited from earlier work
# [1] = PDO UME012, GEM + Elimusertib (ATRi) dose1, per replicate
# [2] = PDO UME012, GEM + Elimusertib (ATRi) dose2, per replicate
# [3] = PDO UME012, GEM + Elimusertib (ATRi) dose3, per replicate
# [4] = PDO UME012, GEM alone, per replicate
# [5] = PDO UME051, GEM + Elimusertib (ATRi) dose1, per replicate
# [6] = PDO UME051, GEM + Elimusertib (ATRi) dose2, per replicate
# [7] = PDO UME051, GEM + Elimusertib (ATRi) dose3, per replicate
# [8] = PDO UME051, GEM alone, per replicate
smiles,measurement,setting,value
"Nc1ccn([C@@H]2O[C@H](CO)[C@@H](O)C2(F)F)c(=O)n1 [GEM, Gemcitabine]",EC50,"PDO UME012; Homo sapiens, PDO UME012, GEM + Elimusertib (ATRi) dose1, mean of replicates, read-out: EC50 mean",12.6 nM
same,EC50,"PDO UME012; Homo sapiens, PDO UME012, GEM + Elimusertib (ATRi) dose1, per replicate, read-out: EC50",11.3 nM
same,EC50,"PDO UME012; Homo sapiens, PDO UME012, GEM + Elimusertib (ATRi) dose1, per replicate, read-out: pEC50 (converted)",11.2 nM
same,EC50,"PDO UME012; Homo sapiens, PDO UME012, GEM + Elimusertib (ATRi) dose2, mean of replicates, read-out: EC50 mean",3.06 nM
same,EC50,"PDO UME012; Homo sapiens, PDO UME012, GEM + Elimusertib (ATRi) dose2, per replicate, read-out: EC50",3.37 nM
same,EC50,"PDO UME012; Homo sapiens, PDO UME012, GEM + Elimusertib (ATRi) dose2, per replicate, read-out: pEC50 (converted)",3.39 nM
same,EC50,"PDO UME012; Homo sapiens, PDO UME012, GEM + Elimusertib (ATRi) dose3, mean of replicates, read-out: EC50 mean",2.42 nM
same,EC50,"PDO UME012; Homo sapiens, PDO UME012, GEM alone, mean of replicates, read-out: EC50 mean",29.1 nM
same,EC50,"PDO UME012; Homo sapiens, PDO UME012, GEM alone, read-out: EC50 mean",29.1 nM
same,Curve bottom,PDO UME012; [1],11.29 and 15.69 and 14.76 and 8.69
same,Curve slope,PDO UME012; [1],0.09 and 0.08 and 0.07
same,Curve top,PDO UME012; [1],1.40 and 1.29 and 1.32 and 1.45
same,pEC50,PDO UME012; [1],7.80 and 7.83 and 8.06
same,EC50,"PDO UME012; PDO UME012, GEM + Elimusertib (ATRi) dose1, per replicate, read-out: EC50",15.7 nM and 14.8 nM and 8.69 nM
same,Curve bottom,PDO UME012; [2],3.37 and 3.54 and 2.28
same,Curve slope,PDO UME012; [2],0.0214 and 0.0222 and 0.0167
same,Curve top,PDO UME012; [2],1.13 and 1.28 and 1.51
same,pEC50,PDO UME012; [2],8.45 and 8.64
same,EC50,"PDO UME012; PDO UME012, GEM + Elimusertib (ATRi) dose2, per replicate, read-out: EC50",3.54 nM and 2.28 nM
same,Curve bottom,PDO UME012; [3],3.57 and 1.25 and 2.45
same,Curve slope,PDO UME012; [3],0.02 and 0.05 and 0.0372
same,Curve top,PDO UME012; [3],1.09 and 0.99 and 1.02
same,pEC50,PDO UME012; [3],8.45 and 8.90 and 8.61
same,EC50,"PDO UME012; PDO UME012, GEM + Elimusertib (ATRi) dose3, per replicate, read-out: EC50",3.57 nM and 1.25 nM and 2.45 nM
same,Curve slope,PDO UME012; [4],0.62 and 0.42 and 0.70 and 0.52
same,Curve top,PDO UME012; [4],1.21 and 1.18 and 1.06 and 1.19
same,pEC50,PDO UME012; [4],8.15 and 7.29 and 7.52 and 7.56
same,EC50,"PDO UME012; PDO UME012, GEM alone, per replicate, read-out: EC50",7.11 nM and 51.3 nM and 30.5 nM and 27.6 nM
same,EC50,"PDO UME051; Homo sapiens, PDO UME051, GEM + Elimusertib (ATRi) dose1, mean of replicates, read-out: EC50 mean",34.9 nM
same,EC50,"PDO UME051; Homo sapiens, PDO UME051, GEM + Elimusertib (ATRi) dose2, mean of replicates, read-out: EC50 mean",15.3 nM
same,EC50,"PDO UME051; Homo sapiens, PDO UME051, GEM + Elimusertib (ATRi) dose3, mean of replicates, read-out: EC50 mean",8.3 nM
same,EC50,"PDO UME051; Homo sapiens, PDO UME051, GEM alone, mean of replicates, read-out: EC50 mean",33.8 nM
same,EC50,"PDO UME051; Homo sapiens, PDO UME051, GEM alone, read-out: EC50 mean",33.8 nM
same,Curve bottom,PDO UME051; [5],61.54 and 16.58 and 29.10 and 61.40 and 25.59 and 36.68 and 21.39 and 27.20
same,Curve slope,PDO UME051; [5],0.20 and 0.21 and 0.19 and 0.27 and 0.15 and 0.25 and 0.16
same,Curve top,PDO UME051; [5],1.01 and 0.92 and 0.96 and 0.94 and 1.28 and 1.37
same,pEC50,PDO UME051; [5],7.21 and 7.78 and 7.54 and 7.59 and 7.44 and 7.67 and 7.57
same,EC50,"PDO UME051; PDO UME051, GEM + Elimusertib (ATRi) dose1, per replicate, read-out: EC50",61.5 nM and 16.6 nM and 29.1 nM and 61.4 nM and 25.6 nM and 36.7 nM and 21.4 nM and 27.2 nM
same,Curve bottom,PDO UME051; [6],15.70 and 19.38 and 5.56 and 12.34 and 19.98 and 22.85 and 24.50 and 1.89
same,Curve slope,PDO UME051; [6],0.23 and 0.20 and 0.22 and 0.26 and 0.21 and 0.14 and 0.30
same,Curve top,PDO UME051; [6],1.02 and 0.95 and 0.89 and 1.03
same,Curve bottom,PDO UME051; [7],6.82 and 3.16 and 19.99 and 13.79 and 5.24 and 6.23 and 5.82 and 5.38
same,Curve slope,PDO UME051; [7],0.26 and 0.20 and 0.24 and 0.23 and 0.30 and 0.15 and 0.16
same,Curve top,PDO UME051; [7],0.75 and 0.88 and 1.32 and 1.31 and 0.95 and 0.93
same,pEC50,PDO UME051; [7],8.17 and 8.50 and 7.70 and 7.86 and 8.28 and 8.21 and 8.24 and 8.27
same,EC50,"PDO UME051; PDO UME051, GEM + Elimusertib (ATRi) dose3, per replicate, read-out: EC50",6.82 nM and 3.16 nM and 20 nM and 13.8 nM and 5.24 nM and 6.23 nM and 5.82 nM and 5.38 nM
same,Curve bottom,PDO UME051; [8],27.81 and 28.79 and 47.23 and 24.70 and 49.88 and 54.38 and 18.12 and 19.12
same,Curve slope,PDO UME051; [8],0.26 and 0.29 and 0.22 and 0.35 and 0.23 and 0.21 and 0.27 and 0.19
same,Curve top,PDO UME051; [8],1.27 and 0.99 and 0.93 and 0.97
same,pEC50,PDO UME051; [8],7.56 and 7.54 and 7.33 and 7.61 and 7.30 and 7.26 and 7.74 and 7.72
same,EC50,"PDO UME051; PDO UME051, GEM alone, per replicate, read-out: EC50",27.8 nM and 28.8 nM and 47.2 nM and 24.7 nM and 49.9 nM and 54.4 nM and 18.1 nM and 19.1 nM
COc1cc(N2CCC(N3CCN(C)CC3)CC2)ccc1Nc1ncc(Cl)c(Nc2ccccc2P(C)(C)=O)n1 [Brigatinib],Kd,CAMK2B; read-out: KDapp,48.4 nM
same,EC50,CAMK2B,323 nM
same,pKDapp,CAMK2B,7.32
same,EC50,PRKAG1,559 nM
same,pKDapp,PRKAG1,6.45
same,Kd,PRKAG1; read-out: KDapp,354 nM
same,EC50,CLK2,686 nM
same,pKDapp,CLK2,6.35
same,Kd,CLK2; read-out: KDapp,444 nM
